Source: US6410600B1, “Azine used as fungicides” (Bayer Aktiengesellschaft, priority 1998, dated 2002)

Assays:
[1] = logP determination by HPLC (EEC direction 79/831 Annex V. A8); type: physicochemical; details: eluent not stated
[2] = system: Plasmopara viticola; assay: Plasmopara Test (grapevine)/Protective; type: in vivo; details: protective, application rate 100 g/ha, evaluation 6 days after inoculation
Procedure: Plasmopara Test (grapevine)/Protective
(§1) To produce a suitable preparation of active compound, 1 part by weight of active compound is mixed with the stated amounts of solvent and emulsifier, and the concentrate is diluted with water to the desired concentration.
To test for protective activity, young plants are sprayed with the preparation of active compound at the stated application rate. After the spray coating has dried on, the plants are inoculated with an aqueous spore suspension of Plasmopara viticola and then remain in an incubation cabin at approximately 20° C. and 100% relative atmospheric humidity for 1 day. The plants are then placed in a greenhouse at approximately 21° C. and approximately 90% relative atmospheric humidity. The plants are then moistened and placed in an incubation cabin for 1 day.
Evaluation is carried out 6 days after the inoculation. 0% means an efficacy which corresponds to that of the control, whereas an efficacy of 100% means that no infection is observed.

[3] = system: Venturia inaequalis; assay: Venturia Test (apple)/Protective; type: in vivo; details: protective, application rate 10 g/ha, evaluation 12 days after inoculation
Procedure: Venturia Test (apple)/Protective
as §1
To test for protective activity, young plants are sprayed with the preparation of active compound at the stated application rate. After the spray coating has dried on, the plants are inoculated with an aqueous conidia suspension of the causative organism of apple scab Venturia inaequalis and then remain in an incubation cabin at approximately 20° C. and 100% relative atmospheric humidity for 1 day.
The plants are then placed in a greenhouse at approximately 21° C. and a relative atmospheric humidity of approximately 90%.
Evaluation is carried out 12 days after the inoculation. 0% means an efficacy which corresponds to that of the control, whereas an efficacy of 100% means that no infection is observed.

[4] = system: Sphaerotheca fuliginea; assay: Sphaerotheca Test (cucumber)/Protective; type: in vivo; details: protective, application rate 100 g/ha, evaluation 10 days after inoculation
Procedure: Sphaerotheca Test (cucumber)/Protective
as §1
To test for protective activity, young plants are sprayed with the preparation of active compound at the stated application rate. After the spray coating has dried on, the plants are inoculated with an aqueous spore suspension of Sphaerotheca fuliginea. The plants are then placed in a greenhouse at approximately 23° C. and a relative atmospheric humidity of approximately 70%.
Evaluation is carried out 10 days after the inoculation. 0% means an efficacy which corresponds to that of the control, whereas an efficacy of 100% means that no infection is observed.

chromatographic logP [1]	Structure (SMILES)	efficacy [2]	efficacy [3]	efficacy [4]
0.97	CO/N=C(\C)C(C)=NN [3-hydrazono-butan-2-one O-methyl oxime]			
4.4	COC(=O)/C=C(/OC)c1ccccc1C=NN=C(C)c1cccc(C(F)(F)F)c1 [Example 1, methyl 3-methoxy-3-(2-{[1-(3-trifluoromethylphenyl)-ethylidene]-hydrazonomethyl}-phenyl)-acrylate]	more than 80%	more than 90%	more than 80%
